Data published in US8410302B2, “Methoxyimino compounds and fungicide composition comprising same” (Kyung Nong Corporation, priority 2007, dated 2013).
Read-outs that look alike come from different tables or passages of the source.

Legend:
Rhizoctonia solani AG-1 = test: Fungicidal activity against rice sheath blight (RSB) disease, control value; conditions: Rhizoctonia solani, AG1, in Oryza sativa, read-out: RSB control value (C.V.)
Phytophthora infestans = test: whole plant or invertebrate; type: in vivo; conditions: Phytophthora infestans, in Solanum lycopersicum, read-out: TLB control value (C.V.)
Botrytis cinerae = test: Fungicidal activity against cucumber gray mold rot (CGM) disease, control value; type: in vivo; conditions: Botrytis, read-out: CGM control value (C.V.)
Erysiphae graminis = test: Fungicidal activity against barley powdery mildew (BPM) disease, control value; type: in vivo; conditions: 168 h, read-out: BPM control value (C.V.)
[1] = system: Pyricularia oryzae Carvara KA301; test: whole plant or invertebrate; type: in vivo; conditions: Pyricularia oryzae, read-out: RCB control value (C.V.)
Puccinia recondita = test: Fungicidal activity against wheat leaf rust (WLR) disease, control value; type: in vivo; conditions: read-out: WLR control value (C.V.)
[2] = Hordeum vulgare, barley powdery mildew

SMILES | pest or weed control at 2 ppm (Rhizoctonia solani AG-1) [%] | pest or weed control at 10 ppm (Rhizoctonia solani AG-1) [%] | pest or weed control at 50 ppm (Rhizoctonia solani AG-1) [%] | pest or weed control at 100 ppm (Rhizoctonia solani AG-1) [%] | pest or weed control at 10 ppm (Phytophthora infestans) [%] | pest or weed control at 50 ppm (Phytophthora infestans) [%] | pest or weed control at 100 ppm (Phytophthora infestans) [%] | pest or weed control at 100 ppm (Botrytis cinerae) [%] | pest or weed control at 2 ppm (Erysiphae graminis) [%] | pest or weed control at 10 ppm (Erysiphae graminis) [%] | pest or weed control at 50 ppm (Erysiphae graminis) [%] | pest or weed control at 100 ppm (Erysiphae graminis) [%] | pest or weed control at 2 ppm [1] [%] | pest or weed control at 10 ppm [1] [%] | pest or weed control at 50 ppm [1] [%] | pest or weed control at 100 ppm [1] [%] | pest or weed control at 2 ppm (Puccinia recondita; Puccinia recondita) [%] | pest or weed control at 10 ppm (Puccinia recondita; Puccinia recondita) [%] | pest or weed control at 50 ppm (Puccinia recondita; Puccinia recondita) [%] | pest or weed control at 2 ppm (Phytophthora infestans) [%] | also measured
CNC(=O)/C(=N/OC)c1ccccc1COc1ccc(C)cc1C=C(Br)Br [Example 70, (E)-2-(2-((2-(2,2-dibromovinyl)-4-methylphenoxy)methyl)phenyl)-2-methoxyimino-N-methylacetamide] | 100 | 100 | 100 | 100 | 35 | 90 | 100 | 50 | 100 | 100 | 100 | 100 | 100 | 100 | 100 | 100 | 100 | 100 | 100 | – | pest or weed control at 100 ppm (Puccinia recondita; Puccinia recondita): 100%
CO/N=C(/C(=O)OC)c1ccccc1COc1ccc(C=C(Cl)Cl)cc1C [Example 41, methyl-(E)-2-(2-((4-(2,2-dichlorovinyl)-2-methylphenoxy)methyl)phenyl)-2-methoxyiminoacetate] | 100 | 100 | 100 | 100 | 100 | 100 | 100 | – | – | – | – | – | 100 | 100 | 100 | 100 | – | – | – | 100 | pest or weed control at 50 ppm (Botrytis cinerae; cucumber gray mold rot): 75%; pest or weed control at 100 ppm (Botrytis cinerae; cucumber gray mold rot): 90%; pest or weed control at 2 ppm (Erysiphae graminis; [2]): 100%; pest or weed control at 10 ppm (Erysiphae graminis; [2]): 100%; pest or weed control at 50 ppm (Erysiphae graminis; [2]): 100%; pest or weed control at 100 ppm (Erysiphae graminis; [2]): 100%; pest or weed control at 2 ppm (Puccinia recondita; wheat leaf rust): 100%; pest or weed control at 10 ppm (Puccinia recondita; wheat leaf rust): 100%; pest or weed control at 50 ppm (Puccinia recondita; wheat leaf rust): 100%; pest or weed control at 100 ppm (Puccinia recondita; wheat leaf rust): 100%
CO/N=C(/C(=O)OC)c1ccccc1COc1cccc(C=C(Br)Br)c1Cl [Example 67, methyl-(E)-2-(2-((3-(2,2-dibromovinyl)-2-chlorophenoxy)methyl)phenyl)-2-methoxyiminoacetate] | 100 | 100 | 100 | 100 | 100 | 100 | 100 | 85 | 100 | 100 | 100 | 100 | 100 | 100 | 100 | 100 | 100 | 100 | 100 | 99 | pest or weed control at 50 ppm (Botrytis cinerae): 40%; pest or weed control at 100 ppm (Puccinia recondita; Puccinia recondita): 100%
CNC(=O)/C(=N/OC)c1ccccc1COc1ccc(C=C(Cl)Cl)cc1 [Example 4, (E)-2-(2-((4-(2,2-dichlorovinyl)phenoxy)methyl)phenyl)-2-methoxyimino-N-methylacetamide] | 90 | 98 | 100 | 100 | 100 | 100 | 100 | – | – | – | – | – | 100 | 100 | 100 | 100 | – | – | – | 100 | pest or weed control at 100 ppm (Botrytis cinerae; cucumber gray mold rot): 75%; pest or weed control at 2 ppm (Erysiphae graminis; [2]): 100%; pest or weed control at 10 ppm (Erysiphae graminis; [2]): 100%; pest or weed control at 50 ppm (Erysiphae graminis; [2]): 100%; pest or weed control at 100 ppm (Erysiphae graminis; [2]): 100%; pest or weed control at 2 ppm (Puccinia recondita; wheat leaf rust): 100%; pest or weed control at 10 ppm (Puccinia recondita; wheat leaf rust): 100%; pest or weed control at 50 ppm (Puccinia recondita; wheat leaf rust): 100%; pest or weed control at 100 ppm (Puccinia recondita; wheat leaf rust): 100%
